Assay results taken from US11135236B2, “Retinoic acid receptor gamma agonists to attenuate anthracycline-induced cardiotoxicity” (Northwestern University, priority 2018, dated 2021).
“Also recorded” adds a separate entry of the source. Marks after values point to notes of the source that are not given here.

What was measured:
[1] = tested on: MCF7; experiment: breast cancer cell viability after 72 h of doxorubicin and RARG agonists co-treatment; type: cell-based, human; conditions: MCF7, doxorubicin LD50 with agonist co-treatment, 10 μM, footnote: 1 μM each, 72 h; Vehicle 0.490
Method: (§2) 384-well plate-based cell viability, caspase 3/7 activity, and reactive oxygen species (ROS) assays. […] Luminescence was measured using a VarioSkan Lux Multi-Mode Reader (Thermo Scientific) with an integration time of 0.25 sec. 10 μM staurosporine (MedChemExpress) was used as a positive control. […] 10 μM staurosporine and 50 μM menadione (both MedChemExpress) was used as a positive control, respectively. Data were analyzed using Prism 7.0 software (GraphPad) using standard dose-response guidelines.
Breast cancer cell lines. Four human breast cancer cell lines were used, MCF7 (adenocarcinoma, ATCC HTB-22) and Hs 578T (carcinsarcoma, ATCC HTB-126) both cultured in RPMI 1640 (Corning) with 10% FBS (Opti-Gold, GenDEPOT), MDA-MB-231 (adenocarcinoma, ATCC HTB-26) and MDA-MB-468 (adenocarcinoma, ATCC HTB-131) both cultured in DMEM (Corning) with 10% FBS. All cells were cultured on uncoated tissue culture plates (Greiner) and passaged with TrypLE Express (Gibco).

[2] = tested on: TOP2B, pERK and BCL2 in the hearts of mice; experiment: Western blot of mouse hearts at three weeks after treatment; type: in vivo; conditions: doxorubicin plus oral agonist
Method: Western blot. We washed and harvested cells in cold PBS and collected them by centrifugation at 20,000 g for 10 min. at 4° C. Pellet was lysed in PBS containing 1% SDS and protease inhibitors (cOmplete, ROCHE) and sonicated (2 pulses of 12 sec at 125 Watt) to shear DNA. We centrifuged the samples at 20,000 g for 15 min. at RT to precipitate and discard the insoluble material and the protein concentration in the supernatant was quantified using BCA assay (Thermo Scientific) following manufacturer's instructions. 20 μg protein/sample were subject to SDS-PAGE in a 9% acrylamide gel for 45 min. at 180 V. and transferred to a PVDF membrane (Immobilon-P, Millipore) at 200 mA. For 90 min. Membranes were blocked in TBST containing 5% milk for 1 h. at RT and incubated at 4° C. overnight with the following primary antibodies: 1:1000 monoclonal rabbit IgG RARG (Abcam, ab187159), 1:1000 polyclonal rabbit IgG TOP2B (Abcam, ab125297), 1:5000 polyclonal rabbit IgG β-Tubulin (Sigma, T2200), 1:5000 monoclonal mouse IgG2a β-Actin (Sigma, A5316). The membrane was washed three times for 10 min with TBST and incubated with the appropriate secondary antibody: 1:5,000 HRP-goat anti-mouse IgG or HRP-goat anti-rabbit IgG (GE NA931V and NA934V) for 1 h. at RT. After three additional washes with TBST, membranes were developed by chemiluminiscence (SuperSignal West Pico, Thermo Scientific). Signals were captured using a CCD camera-based imager (Azure Biosystems) and quantified using Image J software. Mice heart tissues were harvested and homogenized using lysis buffer (80 mM NaCl, 0.05% Triton X, 1 mM EDTA, 20 mM HEPES, 0.5% sodium deoxycholate, 1 mM DTT, 20 mM β-glycerophosphate) with TissueLyser LT (Qiagen) and centrifuged at 10,000 rpm for 15 min at 4° C. Proteins were quantified with Bradford (Bio-Rad) and separated by TrisGlycine SDS/PAGE (Bio-Rad). Transferred proteins on nitrocellulose membrane were probed against TOP2B (R&D Systems), phosphorylated ERK1/2 (Cell Signaling Technologies), BCL2 (Santa Cruz Biotechnology), and GAPDH (Advanced ImmunoChemical).
(§1) Mouse model of doxorubicin-induced cardiomyopathy and drug administration. […] For the control group, we treated mice with corn oil in the same schedule as agonist administration. We recorded an echocardiogram once a week (day 0, day 7, day 14, and day 21) and terminated the experiment at day 21. Hearts were harvested for western blot analyses as mentioned above.

[3] = tested on: C57BL/6J Mice; experiment: mouse model of doxorubicin-induced cardiomyopathy, echocardiography; type: in vivo; conditions: doxorubicin 3 mg kg^−1 i.p. twice weekly for 3 weeks, agonist 12 mg kg^−1 oral once a day, at three weeks
Description: as §1
Echocardiographic evaluation. Mice were studied at baseline and weekly during the protocol under light anesthesia with isoflurane (induction 3%, maintenance 1.5%). 2D images in the parastemal short axis were obtained with a GE Vivid 7 ultrasound system (GE Healthcare) equipped with a 13 MHz transducer. Left ventricular end-systolic (LVESD) and end-diastolic (LVEDD) dimensions were measured and left ventricular fractional shortening (FS) was calculated.

[4] = tested on: RARG-WT hiPSC-CMs; conditions: RARG-WT hiPSC-CMs, agonist 1 μM, 72 h doxorubicin
Method: as §2

[5] = tested on: ERK1/2; experiment: MSD analysis of phosphorylated ERK in hiPSC-CMs; type: cell-based, human; conditions: Control hiPSC-CMs treated with doxorubicin 24 h, with or without pre/co-treatment
Method: MSD analysis of phosphorylated ERK. hiPSC-CMs were collected in lysis buffer (150 mM NaCl, 1% TritonX-100, 50 mM Tris-HCl, pH 8.0) supplemented with Phosphatase Inhibitor II (1:100, Sigma-Adrich), Phosphatase Inhibitor Cocktail 3 (1:100, Sigma-Adrich), 1 mM NaVO4 and protease inhibitors (cOmplete, ROCHE). We centrifuged the samples at 50,000 g for 15 min. at 4° C. to precipitate and discard the insoluble material and the protein concentration in the supernatant was quantified using BCA assay (Thermo Scientific) following manufacturer's instructions. 2.5 μg protein/sample were analyzed using the MSD Phospho(Thr202/yr204; Thr185/Tyr187)/Total ERK1/2 Assay Whole Cell Lysate Kit (Meso Scale Discovery, K15100D-1), according to manufacturer's recommendations. The ratio of phosphorylated ERK was normalized to Total ERK1/2 signal, and analyzed using Prism 7.0 software (GraphPad).

[6] = tested on: control hiPSC-CMs; conditions: 1 μM CD1530 and 30 μM U0126, Control hiPSC-CMs, 72 h doxorubicin
Method: as §2

Structure (SMILES) | LD50 [1] | pERK in the murine hearts [2] | cardiac function (fractional shortening) compared with vehicle treatment [3] | BCL2 in the murine hearts [2] | TOP2B in the murine hearts [2] | increase of doxorubicin LD50 [4] | pERK [5] | effect of ERK signaling inhibition on the protective effect of CD1530 [6]
CC1=C(/C=C/C(C)=C/C=C/C(C)=C/C(=O)O)C(C)(C)CCC1 [ATRA, 3,7-Dimethyl-9-(2,6,6-trimethyl-1-cyclohexen-1-yl)-2E,4E,6E,8E-nonatetraenoic acid] | 0.355 µM | significantly increased | marginally improved |  |  |  |  | 
O=C(O)c1ccc(-c2ccc3cc(O)c(C45CC6CC(CC(C6)C4)C5)cc3c2)cc1 [CD1530, 4-(6-Hydroxy-7-tricyclo[3.3.1.13,7]dec-1-yl-2-naphthalenyl)benzoic acid] | 0.275** μM | significantly increased | significantly higher | significant upregulation | modest but non-significant downregulation | 4 fold | significant increase in pERK; also recorded: significant upregulation of ERK expression | 
O=C(O)c1ccc2cc(-c3ccc(O)c(C45CC6CC(CC(C6)C4)C5)c3)ccc2c1 [CD437, 6-(4-Hydroxy-3-tricyclo[3.3.1.13,7]dec-1-ylphenyl)-2-naphthalenecarboxylic acid] | 0.343 µM |  |  |  |  |  |  | 
N#CC(=C(/N)Sc1ccccc1N)/C(C#N)=C(\N)Sc1ccccc1N [U0126] |  |  |  |  |  |  |  | completely abolished the protective effect of CD1530
